Results from paper PMC8305768, “Design, Synthesis and Antiparasitic Evaluation of Click Phospholipids” (Molecules, 2021).
Structures can show the parent of a compound that is named as a salt.

Legend:
[1] = Cytotoxicity against THP-1 macrophages (MTT); type: cell-based; settings: human, PMA-differentiated THP-1 macrophages, read-out: Toxicity CC50 ± SD Or CC50 Interval Estimation
Experimental: The effect of compounds selected compounds on THP-1-derived macrophages was assessed by the colorimetric MTT assay (3-(4,5-dimethylthiazol-2-yl)-2,5-diphenyl tetrazolium bromide). Briefly, 1 × 10^5 THP-1 cells/mL were differentiated into macrophages by addition of 20 ng/mL of phorbol-myristate 13-acetate (PMA, Sigma, Saint Louis, MI, USA) for 18 h, followed by replacement with fresh medium for 24 h. Cells were incubated with 100 µL of compounds ranging from 100 to 1 µM after dilution in the RPMI complete medium containing a maximum amount of 1% DMSO. After incubation for 72 h, the medium was removed and 100 µL of 0.5 mg/mL MTT solution diluted in RPMI was added. Plates were incubated for an additional 4 h to allow viable cells to convert MTT into a purple formazan product. Solubilization of formazan crystals was achieved by the addition of 2-propanol and absorbance was read at 570 nm using a Synergy 2 Multi-Mode Reader (Biotek, Winooski, VT, USA). Cytotoxicity was evaluated by the determination of the CC50 value (drug concentration that reduced the percentage of viable cells in 50%) and calculated by non-linear regression analysis using GraphPad Prism version 8.1.1 for Windows (GraphPad Software, San Diego, CA, USA).

[2] = system: L. donovani strain BPK190 amastigotes; experiment: Activity against L. donovani intramacrophage amastigotes (bone marrow-derived macrophages, qPCR); type: cell-based, Leishmania donovani; settings: Leishmania donovani, Macrophage, infected bone marrow-derived macrophages, 48 h, read-out: Parassite Load Reduction (%)
Experimental: L. donovani strain BPK 190 [55] was cultivated at 25 °C in modified Medium199 (Sigma-Aldrich, with 20% heat-inactivated FCS, 40 mM HEPES pH 7.4, 0.2% NaHCO3, 100 μM adenin, 1.2 μg/mL 6-biopterin and 10 μg/mL haem, with 1 × Pen/Strep/l-glutamine (Sigma, Saint Louis, MI, USA), pH 7.0).
Activity against L. donovani strain BPK190 was tested in vitro using bone marrow-derived macrophages as host cells. Infection was established for 24 h prior to the addition of compounds from 10 mM stocks in DMSO. Parasite load was determined 48 h later by quantifying Leishmania actin DNA relative to mouse actin DNA using real time qPCR as described.

[3] = system: T. cruzi Y strain intracellular amastigotes; experiment: Activity against T. cruzi Y strain intracellular amastigotes (HG39 cell-line, parasite load); type: cell-based; settings: Trypanosoma cruzi, read-out: Parassite Load Reduction (%)
Experimental: T. cruzi epimastigotes (Y strain) were obtained by axenic cultivation in the LIT medium, supplemented with 10% FBS (Cultilab, São Paulo, Brazil). Cultures were maintained at […] for 4–5 days until they reached the log growth phase. New cultures were made every 4 days from the initial inoculum of 2 × 10^6 parasites/mL. T. cruzi trypomastigotes (Y strain) were maintained in culture by the infection of LLC-MK2 (ATTC-CCL7) epithelial cells. This cell line was cultured in […] tissue culture bottles (TPP) in RPMI 1640 medium (Gibco), (Thermo Fischer Scientific, Carlsbad, CA, USA) supplemented with 10% FBS (Gibco) (Thermo Fischer Scientific, Carlsbad, CA, USA). Cultures were maintained at 37 °C under 5% CO2 atmosphere, and RPMI 1640 medium and SFB were exchanged every 48 h. After confluence, the cultures were treated with 1 mL of a mixture of trypsin and versene (Sigma, São Paulo, Brazil) (0.2 and 0.002%, respectively). After 24 h, a subconfluence culture was infected with the trypomastigotes in the approximate proportion of 10:1 parasites/cell. From five to seven days post infection, the trypomastigote stage was obtained from the culture supernatant. Alternatively (Figure 2), T. cruzi strain Y was maintained as previously described.

[4] = target: T1, CYP1A2 (Homo sapiens, UniProt P05177); experiment: Cytochrome P450 inhibition assay (P450-Glo) CYP1A2; type: in vitro ADME; settings: compounds 10 μM; miltefosine 10 μM or 1 μM
T1 construct: purchased Corning Inc; host or cells: baculovirus-infected insect cells
T1 sequence (P05177 2-516 limits assumed): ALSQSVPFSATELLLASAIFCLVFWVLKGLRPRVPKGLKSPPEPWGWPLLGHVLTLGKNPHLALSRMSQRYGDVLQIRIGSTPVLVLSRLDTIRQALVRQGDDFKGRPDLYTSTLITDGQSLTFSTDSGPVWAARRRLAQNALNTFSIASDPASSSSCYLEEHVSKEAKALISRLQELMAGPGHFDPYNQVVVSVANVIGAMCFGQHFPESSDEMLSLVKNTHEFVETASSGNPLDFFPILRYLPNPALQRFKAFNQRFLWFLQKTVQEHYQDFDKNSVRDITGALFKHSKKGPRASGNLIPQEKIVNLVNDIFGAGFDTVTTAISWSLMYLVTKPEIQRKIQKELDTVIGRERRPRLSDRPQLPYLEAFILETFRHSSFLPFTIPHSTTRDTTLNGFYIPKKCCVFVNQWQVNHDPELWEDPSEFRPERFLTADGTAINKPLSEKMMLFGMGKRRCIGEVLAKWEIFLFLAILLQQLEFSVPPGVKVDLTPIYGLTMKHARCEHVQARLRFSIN
From the text: Cytochrome (CYP) P450 inhibition assay: These assays made use of microsomal preparations of CYP450 (1A2, 2C9, 2C19, 2D6 and 3A4) from baculovirus-infected insect cells (Corning Inc., Corning, NY, USA) and cytochrome c reductase (and cytochrome b5 for CYP450 3A4). For detection of CYP450 activity, the luminescence-based P450-Glo (Promega Corp., Madison, WI, USA) assay system was used that contained a luminogenic CYP450 substrate, lyophilized luciferin detection reagent and reconstitution buffer. The substrates were luciferin derivatives of CYP450-specific substrates that produce (4S)-4,5-dihydro-2-(6-hydroxybenzothiazolyl)-4-thiazolecarboxylic acid (D-luciferin) after cleavage by CYP450 (CYP450 3A4, luciferin-IPA; CYP450 2C19, luciferin-H EGE; CYP450 2C9, luciferin-H; CYP450 2D6, luciferin-ME EGE; CYP450 1A2, luciferin-1A2). CYP450 reactions were initiated by addition of the NADPH regeneration system to the enzyme–substrate mixture with the luciferin detection reagent stopping the reaction and the D-luciferin being converted to oxyluciferin under the production of light being proportional to the CYP450 activity. The CYP450 assays were performed using the Tecan Fluent liquid-handling automation platform (Tecan Group Ltd., Mannedorf, Switzerland) in the 384-well assay format. Compounds were added into an empty 384-well plate (100 nL/well in 1% v/v DMSO) using the Echo 550 Liquid Handler followed by the addition of 5 μL/well of the CYP450/substrate mixture and incubation for 30 min at 37 °C, after which the reaction was initiated by the addition of the 5 μL/well NADPH regeneration system. After a further 30-min incubation at 37 °C, the CYP450 reaction was stopped and the luciferase reaction was simultaneously initiated by addition of 10 μL/well of luciferin detection reagent, followed by an additional 30-min incubation at 37 °C. The luminescence signal was detected using an Infinite M1000 PRO plate reader (Tecan Group Ltd., Mannedorf, Switzerland). The NCs yielded 0% inhibition (1% v/v DMSO) and standard CYP450 specific inhibitors were used as positive controls, yielding 100% inhibition (CYP450 1A2, alpha-naphthoflavone; CYP450 2C9, sulfaphenazole; CYP450 2C19, troglitazone; CYP450 2D6, quinidine; CYP450 3A4, ketoconazole).
Data analysis: The screening data were obtained in triplicate and analysed using ActivityBase (IDBS, Guildford, UK), and outlier elimination in the control wells was performed using the 3-sigma method. Unless stated, dose–response experiments were performed in the 11-point format with the IC50 value, Hill slope, minimum signal and maximum signal for each dose–response curve obtained using a four-parameter logistic fit in the XE module of ActivityBase (IDBS).

[5] = system: T. b. brucei L427 WT bloodstream form; experiment: Activity against T. brucei bloodstream forms (resazurin-based assay); type: cell-based; settings: Trypanosoma brucei, 72 h
Experimental: Trypanosoma brucei brucei Lister 427 bloodstream forms were grown at 37 °C, 5% CO2 in complete HMI-9 medium supplemented with 10% foetal calf serum (FCS) and 100 UI/mL of penicillin/streptomycin. […] The efficacy of compounds against T. brucei bloodstream forms was evaluated using a modified resazurin-based assay previously described. Mid-log bloodstream forms were added to an equal volume of serial dilutions of compounds in supplemented complete HMI-9 medium at a final cell density of 5 × 10^3/mL. Following incubation for 72 h at 37 °C 5% CO2, 20 μL of a 0.5 mM resazurin solution was added and plates were incubated for a further 4 h under the same conditions. Fluorescence was measured at 540 nm and 620 nm excitation and emission wavelength, respectively, using a Synergy 2 Multi-Mode Reader (Biotek, Winooski, VT, USA).

| % inhibition ± SD at 10 μΜ CYP1A2 [4] | SMILES | CC50 at 72 h [1] [µM] | inhibition of growth at 5 µM [2] [%] | inhibition of growth at 10 µM [3] [%] | inhibition at 10 µM ([5]; 10 μM, read-out: Single Dose Assay 10μM Mean Inhibitory Activity (%) ± SD) [%] | IC50 ([5]; read-out: Dose Response Curves IC50 ± SD) [µM] |
| --- | --- | --- | --- | --- | --- | --- |
| –2.91% | C[N+](C)(C)CCOP(=O)([O-])OCCCCCCCCCCCn1cc(CCCCCCCCC(=O)OCc2ccccc2)nn1 [Compound 30, 11-(4-(9-(benzyloxy)-9-oxononyl)-1H-1,2,3-triazol-1-yl)undecyl (2-(trimethyl ammonio)ethyl) phosphate inner salt] | > 100 | 0 | 69.7 |  |  |
| 3.18% | C[N+](C)(C)CCOP(=O)([O-])OCCCCCCCCCCCn1cc(CCCCCCCCN)nn1 [Compound 36, 11-(4-(8-aminooctyl)-1H-1,2,3-triazol-1-yl)undecyl (2-(trimethylammonio)ethyl) phosphate inner salt] | > 100 | 20.3 | 0 | 30 ± 7 |  |
|  | CC1CS(=O)(=O)CCN1/N=C/c1ccc([N+](=O)[O-])o1 (centres unmarked) [Nifurtimox, reference compound] |  |  | 81.2 |  |  |
|  | N=C(N)c1ccc(OCCCCCOc2ccc(C(=N)N)cc2)cc1 [Pentamidine, reference compound] |  |  |  |  | 0.00155 ± 0.00024 |
